Results: the CheMixHub viscosity set

Assay: xn = mol fraction of the nth substance listed

O=C1CCCN1 + CC(O)CO
Conditions	viscosity [mPa·s]
298.15 K, 101.33 kPa, x1 = 0.06223	38.56
298.15 K, 101.33 kPa, x1 = 0.09322	36.35
298.15 K, 101.33 kPa, x1 = 0.1974	30.23
298.15 K, 101.33 kPa, x1 = 0.2925	26.21
298.15 K, 101.33 kPa, x1 = 0.3956	23.01
298.15 K, 101.33 kPa, x1 = 0.5612	19.49
298.15 K, 101.33 kPa, x1 = 0.5963	18.87
298.15 K, 101.33 kPa, x1 = 0.7003	17.36
298.15 K, 101.33 kPa, x1 = 0.7843	16.26
298.15 K, 101.33 kPa, x1 = 0.8992	14.8
298.15 K, 101.33 kPa, x1 = 0.9581	13.93
308.15 K, 101.33 kPa, x1 = 0.05382	23.04
308.15 K, 101.33 kPa, x1 = 0.1106	20.74
308.15 K, 101.33 kPa, x1 = 0.1986	18.2
308.15 K, 101.33 kPa, x1 = 0.3058	15.92
308.15 K, 101.33 kPa, x1 = 0.3989	14.45
308.15 K, 101.33 kPa, x1 = 0.512	12.98
308.15 K, 101.33 kPa, x1 = 0.5975	12.23
308.15 K, 101.33 kPa, x1 = 0.6998	11.39
308.15 K, 101.33 kPa, x1 = 0.8034	10.71
308.15 K, 101.33 kPa, x1 = 0.8984	9.939
308.15 K, 101.33 kPa, x1 = 0.957	9.465
313.15 K, 101 kPa, x1 = 0.0803	16.98
313.15 K, 101 kPa, x1 = 0.1596	15.07
313.15 K, 101 kPa, x1 = 0.2403	13.58
313.15 K, 101 kPa, x1 = 0.3201	12.41
313.15 K, 101 kPa, x1 = 0.4011	11.51
313.15 K, 101 kPa, x1 = 0.481	10.79
313.15 K, 101 kPa, x1 = 0.5617	10.17
313.15 K, 101 kPa, x1 = 0.6394	9.657
313.15 K, 101 kPa, x1 = 0.7192	9.2
313.15 K, 101 kPa, x1 = 0.7993	8.742
313.15 K, 101 kPa, x1 = 0.8723	8.338
313.15 K, 101 kPa, x1 = 0.9579	7.845
318.15 K, 101.33 kPa, x1 = 0.06032	14.2
318.15 K, 101.33 kPa, x1 = 0.09973	13.37
318.15 K, 101.33 kPa, x1 = 0.1931	11.82
318.15 K, 101.33 kPa, x1 = 0.3054	10.43
318.15 K, 101.33 kPa, x1 = 0.3986	9.613
318.15 K, 101.33 kPa, x1 = 0.5124	8.834
318.15 K, 101.33 kPa, x1 = 0.6012	8.369
318.15 K, 101.33 kPa, x1 = 0.6899	7.95
318.15 K, 101.33 kPa, x1 = 0.7926	7.488
318.15 K, 101.33 kPa, x1 = 0.9004	7.031
318.15 K, 101.33 kPa, x1 = 0.9614	6.774

Cc1cc(C)cc(C)c1 + CC(C)=O
307.35 K, 101.33 kPa
Conditions	viscosity [mPa·s]
x2 = 0.1387	0.541
x2 = 0.4493	0.447
x2 = 0.5975	0.403
x2 = 0.6567	0.383
x2 = 0.7521	0.362
x2 = 0.9168	0.313

O=S(=O)(O)CCCN1CCOCC1 + O
viscosity [mPa·s], 101.3 kPa
Conditions	x1 = 0.003708	x1 = 0.007256	x1 = 0.009684	x1 = 0.01083	x1 = 0.01439	x1 = 0.0179
298.15 K	0.947	1.027	1.07	1.098	1.189	1.276
308.15 K	0.765	0.826	0.863	0.886	0.963	1.03
318.15 K	0.634	0.684	0.711	0.733	0.797	0.851
